Experimental data: patent US20260152484A1, “HETEROCYCLIC COMPOUNDS AS TRIGGERING RECEPTOR EXPRESSED ON MYELOID CELLS 2 AGONISTS” (Vigil Neuroscience, Inc., priority 2021, published 2026)

target: T1, human TREM2 (Homo sapiens, UniProt Q9NZC2); assay: Cellular phosphorylation of Syk (AlphaLisa) in HEK293T-hTREM2 cells, TREM2 agonist potency; format: cell-based; details: HEK293 cells expressing human TREM2 and DAP12; pSyk AlphaLisa; Table D
T1 construct: expressed in transfected cells; host or cells: HEK293T (HEK293T-hTREM2 cells)
Protocol: In Vitro Measurement of Triggering Receptor Expressed on Myeloid Cells 2 Activity Using Cellular Phosphorylation of Spleen Tyrosine Kinase (“Syk”) Assays
Measurement of TREM2 agonist potency was done using a HEK cell line expressing human TREM2 and DAP12 (HEK293T-hTREM2 cells). Binding of small molecules to, and activation of, TREM2 increases the phosphorylation of Syk. The resultant levels of Syk phosphorylation are measured using a commercial AlphaLisa reagent kit. To perform the assay, HEK-hTREM2 cells were plated at 14,000 cells per well in a 384 well plate, in 25 μL of complete growth media and incubated at 37° C., 5% CO2 for 20-24 hours.
Prior to the assay, test compounds were diluted in the 384 well plates in assay buffer and allowed to equilibrate for 30 minutes. Growth media was removed from cell plates by inversion on blotting paper, and 25 μL of test articles in assay buffer was added to cells. Cells were incubated for 45 minutes at room temperature. After 45 minutes, assay buffer was removed and 10 μL of lysis buffer was added. Plates were shaken for 20 minutes at 350 RPM at room temperature. After complete lysis, AlphaLisa reagents were added to the lysate, and fluourescence intensity was measured using a Perkin Elmer Envision plate reader. Intensities were used to generate a standard curve, and % activation was calculated. Curve fitting was performed using Prism v9 software, log(agonist) vs response—variable slope (four parameters), and EC50s were calculated from the curve fit.
The results presented in Table D have been generated with the in vitro assay described above. This assay may be used to test any of the compounds described herein to assess and characterize a compound's ability to act as an agonist of TREM2.

T1 sequence (Q9NZC2 19-230): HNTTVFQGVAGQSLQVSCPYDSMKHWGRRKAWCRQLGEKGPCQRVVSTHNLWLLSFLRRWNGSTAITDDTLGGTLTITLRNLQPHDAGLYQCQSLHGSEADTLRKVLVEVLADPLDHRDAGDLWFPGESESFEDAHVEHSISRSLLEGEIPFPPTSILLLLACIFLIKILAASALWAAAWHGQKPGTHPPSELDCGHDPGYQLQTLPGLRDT
T1 sequence (O43914 22-113 partner): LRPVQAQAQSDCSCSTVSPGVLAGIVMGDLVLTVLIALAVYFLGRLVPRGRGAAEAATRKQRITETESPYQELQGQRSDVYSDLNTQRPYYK

| EC50 [µM] | SMILES |
| --- | --- |
| 3 to 100 | Cc1nc2c(=O)n(C(C)c3ccc(Cl)cc3)nc(-c3ccc(Cl)cc3)c2s1 (stereo not drawn) [compound 27, 7-(4-chlorophenyl)-5-(1-(4-chlorophenyl)ethyl)-2-methylthiazolo[4,5-d]pyridazin-4(5H)-one] |
| 3 to 100 | Cc1nc2c(=O)n(CCc3ccccc3)nc(-c3ccc(Cl)c(Cl)c3)c2s1 [compound 32, 7-(3,4-dichlorophenyl)-2-methyl-5-phenethylthiazolo[4,5-d]pyridazin-4(5H)-one] |
| 3 to 100 | O=c1c2nc(NCC3CC3)sc2c(-c2ccc(Cl)cc2)nn1CCc1ccccc1 [compound 36, 7-(4-chlorophenyl)-2-(cyclopropylmethylamino)-5-(2-phenylethyl)thiazolo[4,5-d]pyridazin-4-one] |
| 3 to 100 | Cc1nc2c(=O)n(C(C)Cc3ccc(Cl)cc3)nc(-c3ccc(Cl)cc3)c2s1 (stereo not drawn) [compound 30, 7-(4-chlorophenyl)-5-(1-(4-chlorophenyl)propan-2-yl)-2-methylthiazolo[4,5-d]pyridazin-4 (5H)-one] |
| 3 to 100 | O=c1c2nc(NCCc3ccccc3)sc2c(-c2ccc(Cl)cc2)nn1CCc1ccccc1 [compound 37, 7-(4-chlorophenyl)-5-(2-phenylethyl)-2-(2-phenylethylamino)thiazolo[4,5-d]pyridazin-4-one] |
| 3 to 100 | Cc1nc2c(=O)n(-c3ccc(C(=O)NC(C)C)cc3)nc(-c3ccc(Cl)cc3)c2s1 [compound 38, 4-(7-(4-chlorophenyl)-2-methyl-4-oxothiazolo[4,5-d]pyridazin-5(4H)-yl)-N-isopropylbenzamide] |
| 0.5 to 3 | Cc1cc2c(-c3ccc(Cl)cc3)nn(-c3ccc(OC(F)(F)F)cc3)c(=O)c2cc1C [compound 10, 4-(4-chlorophenyl)-6,7-dimethyl-2-(4-(trifluoromethoxy)phenyl)phthalazin-1(2H)-one] |
| 3 to 100 | CC(C)C(=O)Nc1nc2c(=O)n(CCc3ccccc3)nc(-c3ccc(Cl)cc3)c2s1 [compound 35, N-[7-(4-chlorophenyl)-4-oxo-5-(2-phenylethyl)thiazolo[4,5-d]pyridazin-2-yl]-2-methyl-propanamide] |
| 3 to 100 | CN1CCC(n2nc(-c3ccc(Cl)cc3)c3cc(Cl)c(Cl)cc3c2=O)CC1=O (stereo not drawn) [compound 21, 6,7-dichloro-4-(4-chlorophenyl)-2-(1-methyl-2-oxopiperidin-4-yl)phthalazin-1(2H)-one] |
| 3 to 100 | Cc1nc2c(=O)n(CCc3ccccc3)nc(-c3ccccc3)c2s1 [compound 29, 2-methyl-5-phenethyl-7-phenylthiazolo[4,5-d]pyridazin-4(5H)-one] |
| 3 to 100 | Cc1cc2c(-c3ccc(Cl)cc3)nn(-c3ccc(C4CC4)nc3)c(=O)c2cc1C [compound 17, 4-(4-chlorophenyl)-2-(6-cyclopropylpyridin-3-yl)-6,7-dimethylphthalazin-1(2H)-one] |
| 3 to 100 | COc1ccc(-c2nn(CCc3ccccc3)c(=O)c3nc(C)sc23)cc1 [compound 40, 7-(4-methoxyphenyl)-2-methyl-5-phenethylthiazolo[4,5-d]pyridazin-4(5H)-one] |
| 0.5 to 3 | Cc1cc2c(-c3ccc(Cl)cc3)nn(-c3ccnc(C4COC4)c3)c(=O)c2cc1C [compound 14, 4-(4-chlorophenyl)-6,7-dimethyl-2-(2-(oxetan-3-yl)pyridin-4-yl)phthalazin-1(2H)-one] |
| 3 to 100 | Cc1nc2c(=O)n(CCc3ccccc3)nc(-c3ccc(Cl)cc3)c2s1 [compound 28, 7-(4-chlorophenyl)-2-methyl-5-phenethylthiazolo[4,5-d]pyridazin-4(5H)-one] |
| 3 to 100 | CNC(Cn1nc(-c2ccc(Cl)cc2)c2sc(C)nc2c1=O)c1ccc(Cl)cc1 (stereo not drawn) [compound 25, 7-(4-chlorophenyl)-5-(2-(4-chlorophenyl)-2-(methylamino)ethyl)-2-methylthiazolo[4,5-d]pyridazin-4(5H)-one] |
| 3 to 100 | Cc1nc2c(=O)n(CC(=O)c3ccc(Cl)cc3)nc(-c3ccc(Cl)cc3)c2s1 [compound 24, 7-(4-chlorophenyl)-5-(2-(4-chlorophenyl)-2-oxoethyl)-2-methylthiazolo[4,5-d]pyridazin-4(5H)-one] |
| 0.5 to 3 | Cc1cc2c(-c3ccc(Cl)cc3)nn(-c3ccnc(C4CCN(C(=O)OC(C)(C)C)CC4)c3)c(=O)c2cc1C [compound 22, tert-butyl 4-(4-(4-(4-chlorophenyl)-6,7-dimethyl-1-oxophthalazin-2(1H)-yl)pyridin-2-yl)piperidine-1-carboxylate] |
| 3 to 100 | CC(=O)N1CCC(n2nc(-c3ccc(Cl)cc3)c3cc(Cl)c(Cl)cc3c2=O)CC1 [compound 13, 2-(1-acetylpiperidin-4-yl)-6,7-dichloro-4-(4-chlorophenyl)phthalazin-1(2H)-one] |
| 0.5 to 3 | Cc1cc2c(-c3ccc(Cl)cc3)nn(-c3ccnc(C4CNC4)c3)c(=O)c2cc1C [compound 16, 2-(2-(azetidin-3-yl)pyridin-4-yl)-4-(4-chlorophenyl)-6,7-dimethylphthalazin-1(2H)-one] |
| 0.5 to 3 | Cc1cc2c(-c3ccc(Cl)cc3)nn(-c3ccnc(OC4CN(C(=O)OC(C)(C)C)C4)c3)c(=O)c2cc1C [compound 20, tert-butyl 3-((4-(4-(4-chlorophenyl)-6,7-dimethyl-1-oxophthalazin-2(1H)-yl)pyridin-2-yl)oxy)azetidine-1-carboxylate] |
| 3 to 100 | Cc1nc2c(=O)n(-c3ccc(OC(F)(F)F)cc3)nc(-c3ccc(Cl)cc3)c2s1 [compound 41, 7-(4-chlorophenyl)-2-methyl-5-(4-(trifluoromethoxy)phenyl)thiazolo[4,5-d]pyridazin-4(5H)-one] |
| 0.5 to 3 | CC(C)n1ccc(-n2nc(-c3ccc(Cl)cc3)c3cc(Cl)c(Cl)cc3c2=O)cc1=O [compound 11, 6,7-dichloro-4-(4-chlorophenyl)-2-(1-isopropyl-2-oxo-1,2-dihydropyridin-4-yl)phthalazin-1(2H)-one] |
| 3 to 100 | Cc1cc2c(-c3ccc(Cl)cc3)nn(-c3ccc4c(c3)OCO4)c(=O)c2cc1C [compound 19, 2-(benzo[d][1,3]dioxol-5-yl)-4-(4-chlorophenyl)-6,7-dimethylphthalazin-1(2H)-one] |

same assay, conditions: HEK293 cells expressing human TREM2 and DAP12; pSyk AlphaLisa; Table D-2

| EC50 [µM] | SMILES |
| --- | --- |
| 0.5 to 3 | Cc1cc2c(-c3ccc(Cl)cc3)cn(-c3ccc(OC(F)(F)F)cc3)c(=O)c2nc1C [I-122, 5-(4-chlorophenyl)-2,3-dimethyl-7-(4-(trifluoromethoxy)phenyl)-1,7-naphthyridin-8 (7H)-one] |
| 0.5 to 3 | COc1ccc(-c2nn(-c3ccnc(C4COC4)c3)c(=O)c3cc(C)c(C)cc23)cc1 [I-108, 4-(4-methoxyphenyl)-6,7-dimethyl-2-[2-(oxetan-3-yl)-4-pyridyl]phthalazin-1-one] |
| 0.5 to 3 | Cc1cc2c(-c3ccc(Cl)c(Cl)c3)nn(-c3ccnc(C4COC4)c3)c(=O)c2cc1C [I-107, 4-(3,4-dichlorophenyl)-6,7-dimethyl-2-[2-(oxetan-3-yl)-4-pyridyl]phthalazin-1-one] |
| 3 to 100 | Cc1cc2c(-c3ccc(F)cc3)nn(-c3ccc(OC(F)(F)F)cc3)c(=O)c2nc1C [I-121, 5-(4-fluorophenyl)-2,3-dimethyl-7-(4-(trifluoromethoxy)phenyl)pyrido[2,3-d]pyridazin-8 (7H)-one] |
| 0.5 to 3 | Cc1nc2c(-c3ccc(C(F)(F)F)cc3F)cn([C@H]3CCO[C@@H](c4cnn(C5CC5)c4)C3)c(=O)c2nc1C [I-123, 6-[(2R,4S)-2-(1-cyclopropyl-1H-pyrazol-4-yl)tetrahydro-2H-pyran-4-yl]-8-[2-fluoro-4-(trifluoromethyl)phenyl]-2,3-dimethylpyrido[3,4-b]pyrazin-5 (6H)-one] |
| 0.5 to 3 | Cc1cc2c(-c3ccc(Cl)cc3F)nn(-c3ccnc(C4COC4)c3)c(=O)c2cc1C [I-111, 4-(4-chloro-2-fluoro-phenyl)-6,7-dimethyl-2-[2-(oxetan-3-yl)-4-pyridyl]phthalazin-1-one] |
| 0.5 to 3 | Cc1cc2c(-c3ccc(Cl)cc3)nn(-c3ccnc(NC4CC(F)(F)C4)c3)c(=O)c2nc1C [I-117, 5-(4-chlorophenyl)-7-(2-((3,3-difluorocyclobutyl)amino)pyridin-4-yl)-2,3-dimethylpyrido[2,3-d]pyridazin-8 (7H)-one] |
| 0.5 to 3 | Cc1cc2c(-c3ccc(Cl)cc3)nn(-c3ccnc(NC4COC4)c3)c(=O)c2nc1C [I-116, 5-(4-chlorophenyl)-2,3-dimethyl-7-(2-(oxetan-3-ylamino)pyridin-4-yl)pyrido[2,3-d]pyridazin-8 (7H)-one] |
| 3 to 100 | Cc1cc2c(-c3ccc(Cl)cc3)nn(-c3ccnc(C4COC4)c3)c(=O)c2nc1C [I-112, 5-(4-chlorophenyl)-2,3-dimethyl-7-[2-(oxetan-3-yl)-4-pyridyl]pyrido [2,3-d]pyridazin-8-one] |
| 0.5 to 3 | Cc1cc2c(-c3ccc(Cl)cc3)nn(-c3ccnc(NC4CCOC4)c3)c(=O)c2nc1C (racemic) [I-113, 5-(4-chlorophenyl)-2,3-dimethyl-7-(2-((tetrahydrofuran-3-yl)amino)pyridin-4-yl)pyrido[2,3-d]pyridazin-8 (7H)-one] |
